What was measured:
Assay type in all cases: cell-based
Fusobacterium nucleatum [1] = assay: MIC (minimum inhibitory concentration) study, 96 well microtiter plates; conditions: F. nucleatum, 48 hours at 37° C., turbidity at 660 nm
Protocol: (§1) In vitro tests were conducted with a gram positive supragingival plaque bacterium, Streptococcus mutans. In addition, two subgingival plaque bacteria associated with oral malodor were tested, Porphyromonas gingivalis and Fusobacterium nucleatum. The MIC (Minimum Inhibitory Concentrations) study protocol is as follows. Chlorhexidine was used as a positive control and sterile water was used as a negative control. Cardamom oil was suspended in 10% methanol with 3.8% Tween 80. […] 96 well microtiter plates were used for this study. Each well contained 5×10^5 colony forming units/ml of bacteria, serially diluted agents and bacterial growth medium. All bacterial cultures were incubated at 37° C. and stationary. Bacterial growth was estimated spectrophotometrically at 660 nm, after 48 hours. The MIC for each test bacteria was defined as the minimum concentration of test compound limiting turbidity to […].

Porphyromonas gingivalis [2] = assay: as above; conditions: P. gingivalis, 48 hours at 37° C., turbidity at 660 nm
Protocol: as §1

Fusobacterium nucleatum [3] = assay: MBC (minimum bactericidal concentration) determination, plating on blood agar; conditions: F. nucleatum, lowest concentration killing at least 99.9% of initial inoculum, plates 48 hours at 37° C.
Protocol: (§2) The MBC (Minimum bactericidal concentrations) were determined using the 96 well microtiter plate serial dilutions as described above for MIC studies. Serial dilution of cultures in wells showing no visible growth were performed and 10 microliters of culture were plated in triplicate on blood agar plates. Viable colonies were scored after incubation of the plates for 48 hours at 37° C. For each test bacterium, the number of CFU/ml were determined in the initial inoculum. The MBC was defined as the lowest concentration of a test compound that killed at least 99.9% of the cells present in the initial inoculum.

Porphyromonas gingivalis [4] = assay: as above; conditions: P. gingivalis, lowest concentration killing at least 99.9% of initial inoculum, plates 48 hours at 37° C.
Protocol: as §2

[H]/N=C(\N/C(=N/[H])NCCCCCCNC(=N)NC(=N)Nc1ccc(Cl)cc1)Nc1ccc(Cl)cc1 [Cholorhexidine, Chlorhexidine]
1.25 µg/mL: MIC (Fusobacterium nucleatum [1]) | MIC (Porphyromonas gingivalis [2]) | MBC (Fusobacterium nucleatum [3]) | MBC (Porphyromonas gingivalis [4])

Source: patent US20040253192A1, “Breath Freshening and Oral Cleansing Product Using Cardamom Oil” (priority 2002, published 2004)
